Our source for the IC50 values is patent publication US11780841B2, “3,6-methano-1H-pyrrolo[3,2-b]pyridine and 3,6-methano-1H-pyrrolo[3,2-c]pyridine compounds and medicaments using same” (priority 2018, dated 2023).

Each structure is given as a SMILES string. Read-outs that look alike come from different tables or passages of the source.

The assay concerns recombinant rabies virus 1088 strain expressing Gaussia Luciferase (GLuc) (1088/GLuc). Type of assay: cell-based.

Regarding `CC(C)CNC(=O)[C@]12NC[C@@H]3C[C@H]1CN(CC(C)C)[C@H]2[C@@H]3Cc1ccccc1` (relative stereo) [IB-3], the IC50 by setting is: (read-out: Anti-rabies activity) 10 to 30 µM; (read-out: IC50) 19.6 µM.
Consider `CC(C)CNC(=O)[C@]12NC[C@@H]3C[C@H]1CN(Cc1ccccc1)[C@H]2[C@@H]3CC(C)C` (relative stereo) [IB-4], for which the IC50 was 10 to 30 µM (read-out: Anti-rabies activity) and 19.2 µM (read-out: IC50).
The matching figures for `CC(C)C[C@@H]1[C@@H]2CN[C@@]3(C(=O)NCc4ccccc4)[C@@H](C2)CN(CC(C)C)[C@@H]13` (relative stereo) [IB-5]: 10 to 30 µM and 18.2 µM.
For `CC(C)CCN1C[C@@H]2C[C@H]3CN[C@]2(C(=O)NCc2ccccc2)[C@@H]1[C@@H]3Cc1ccccc1` (relative stereo) [IB-9] the same measures were 10 to 30 µM and 17 µM.
For `CC(C)C[C@@H]1[C@@H]2CN[C@@]3(C(=O)NCCc4ccccc4)[C@@H](C2)CN(Cc2ccccc2)[C@@H]13` (relative stereo) [IB-12] the same measures were 10 to 30 µM and 15.5 µM.
With `Cc1cccc(C[C@@H]2[C@@H]3CN[C@@]4(C(=O)NCc5ccccc5)[C@@H](C3)CN(CC(C)C)[C@@H]24)c1` (relative stereo) [IB-13], the IC50 was 10 to 30 µM (read-out: Anti-rabies activity) and 14.3 µM (read-out: IC50).
For `Cc1cccc(CNC(=O)[C@]23NC[C@@H]4C[C@H]2CN(CC(C)C)[C@H]3[C@@H]4Cc2ccccc2)c1` (relative stereo) [IB-15], the IC50 was 10 to 30 µM (read-out: Anti-rabies activity) and 15.9 µM (read-out: IC50).
Take `O=C(NCc1ccccc1)[C@]12NC[C@H]3C[C@H]1CN(Cc1cccc4ccccc14)[C@H]2[C@@H]3Cc1ccccc1` (relative stereo) [IB-42, (3S*,3aS*,6S*,7R*,7aS*)-N,7-dibenzyl-1-(naphthalen-1-ylmethyl)octahydro-3aH-3,6-methanopyrrolo[3,2-b]pyridine-3a-carboxamide]: the IC50 (read-out: Anti-rabies activity) fell in the range of 10 to 30 µM.
Still for that read-out and setting: under `CC(C)C[C@@H]1[C@H]2CN[C@@]3(C(=O)NCc4cccc5ccccc45)[C@@H](C2)CN(CC(N)=O)[C@@H]13` (relative stereo) [IB-81] stands 10 to 30 µM.
On to `NC(=O)CN1C[C@@H]2C[C@@H]3CN[C@]2(C(=O)NCc2cccc4ccccc24)[C@@H]1[C@@H]3Cc1ccccc1` (relative stereo) [IB-82], for which the IC50 (read-out: Anti-rabies activity) lay in the range of 10 to 30 µM.
Take `NC(=O)CN1C[C@@H]2C[C@@H]3CN[C@]2(C(=O)NCc2cccc4ccccc24)[C@@H]1[C@@H]3Cc1ccc(O)cc1` (relative stereo) [IB-83]: the IC50 (read-out: Anti-rabies activity) lay in the range of 10 to 30 µM.
Same read-out and setting: under `CC(C)C[C@@H]1[C@@H]2CN[C@@]3(C(=O)NCc4cccc5ccccc45)[C@@H](C2)CN(CCCNC(=N)N)[C@@H]13` (relative stereo) [IB-164, (3S*,3aS*,6R*,7R*,7aS*)-1-(3-guanidinopropyl)-7-isobutyl-N-(naphthalen-1-ylmethyl)octahydro-3aH-3,6-methanopyrrolo[3,2-b]pyridine-3a-carboxamide] stands under 5 µM; under `CCN1C[C@H]2C[C@H]3CN(Cc4ccc(C)cc4)[C@@H]([C@@H]2CC(C)C)[C@]31C(=O)NCc1ccccc1` (relative stereo) [IB-880], under 5 µM.
For the molecule `Cc1ccc(CN2C[C@@H]3C[C@@H]4CN(CC(C)C)[C@]3(C(=O)NCc3ccccc3)[C@@H]2[C@@H]4CC(C)C)cc1` (relative stereo) [IB-881], the IC50 (read-out: Anti-rabies activity) is under 5 µM.
Still for that read-out and setting: as for `Cc1ccc(CN2C[C@@H]3C[C@@H]4CN(C(=O)CC(C)C)[C@]3(C(=O)NCc3ccccc3)[C@@H]2[C@@H]4CC(C)C)cc1` (relative stereo) [IB-883], the figure is under 5 µM; as for `COC(=O)N1C[C@H]2C[C@H]3CN(Cc4ccc(C)cc4)[C@@H]([C@@H]2CC(C)C)[C@]31C(=O)NCc1ccccc1` (relative stereo) [IB-885], 5 to 10 µM.
`Cc1ccc(CN2C[C@@H]3C[C@@H]4CN(C(=O)OCC(C)C)[C@]3(C(=O)NCc3ccccc3)[C@@H]2[C@@H]4CC(C)C)cc1` (relative stereo) [IB-886]: the IC50 (read-out: Anti-rabies activity) lay in the range of 5 to 10 µM.
On the same count and under the same terms, as for `Cc1ccc(CN2C[C@@H]3C[C@@H]4CN(C(N)=O)[C@]3(C(=O)NCc3ccccc3)[C@@H]2[C@@H]4CC(C)C)cc1` (relative stereo) [IB-888], the figure is 10 to 30 µM; as for `CC(C)C[C@@H]1[C@H]2CN[C@@]3(C(=O)NCc4cccc(O)c4)[C@@H](C2)CN(Cc2ccc(N(C)C)cc2)[C@@H]13` (relative stereo) [IB-891], 10 to 30 µM; as for `CC(C)C[C@@H]1[C@H]2CN[C@@]3(C(=O)NCc4ccc(O)cc4)[C@@H](C2)CN(Cc2ccc(N(C)C)cc2)[C@@H]13` (relative stereo) [IB-892], 10 to 30 µM.
`CC(C)CN1C[C@H]2C[C@]3(C(=O)NCc4ccccc4)NC[C@H]2[C@H]1[C@H]3Cc1ccccc1` (relative stereo) [IF-1, (3S*,3aS*,6S*,7R*,7aS*)-N,7-dibenzyl-1-isobutyloctahydro-6H-3,6-methanopyrrolo[3,2-c]pyridine-6-carboxamide]: the IC50 (read-out: Anti-rabies activity) fell in the range of 10 to 30 µM and the IC50 (read-out: IC50) came to 12.6 µM.
The matching figures for `CC(C)CNC(=O)[C@@]12C[C@@H]3CN(Cc4ccccc4)[C@@H]([C@@H]3CN1)[C@H]2Cc1ccccc1` (relative stereo) [IF-6]: 10 to 30 µM and 16.3 µM.
As to `CC(C)C[C@@H]1[C@@H]2[C@@H]3CN[C@@]1(C(=O)NCc1ccccc1)C[C@@H]3CN2Cc1ccccc1` (relative stereo) [IF-7], the IC50 reads like this: (read-out: Anti-rabies activity) 5 to 10 µM; (read-out: IC50) 8.5 µM.
As for `CC(C)CCN1C[C@H]2C[C@]3(C(=O)NCc4ccccc4)NC[C@H]2[C@H]1[C@H]3Cc1ccccc1` (relative stereo) [IF-9], the IC50 by setting is: (read-out: Anti-rabies activity) 10 to 30 µM; (read-out: IC50) 15.6 µM.
Regarding `CC(C)CN1C[C@H]2C[C@]3(C(=O)NCc4ccccc4)NC[C@H]2[C@H]1[C@H]3CCc1ccccc1` (relative stereo) [IF-11], the IC50 was 10 to 30 µM (read-out: Anti-rabies activity) and 17.5 µM (read-out: IC50).
For `Cc1cccc(C[C@@H]2[C@@H]3[C@@H]4CN[C@@]2(C(=O)NCc2ccccc2)C[C@@H]4CN3CC(C)C)c1` (relative stereo) [IF-13] the same measures were 10 to 30 µM and 13.1 µM.
As to `Cc1ccc(C[C@@H]2[C@@H]3[C@@H]4CN[C@@]2(C(=O)NCc2ccccc2)C[C@@H]4CN3CC(C)C)cc1` (relative stereo) [IF-14], the IC50 by setting is: (read-out: Anti-rabies activity) 10 to 30 µM; (read-out: IC50) 14.1 µM.
Consider `Cc1cccc(CNC(=O)[C@@]23C[C@@H]4CN(CC(C)C)[C@@H]([C@@H]4CN2)[C@H]3Cc2ccccc2)c1` (relative stereo) [IF-15], for which the IC50 reads like this: (read-out: Anti-rabies activity) 10 to 30 µM; (read-out: IC50) 17.1 µM.
The matching figures for `CC(C)C[C@@H]1[C@@H]2[C@@H]3CN[C@@]1(C(=O)NCc1ccc(Cl)c(Cl)c1)C[C@@H]3CN2Cc1ccccc1` (relative stereo) [IF-20]: 10 to 30 µM and 11.6 µM.
As for `CC(C)CN1C[C@H]2C[C@]3(C(=O)NCc4ccccc4)NC[C@H]2[C@H]1[C@H]3CC1CCCCC1` (relative stereo) [IF-38], the IC50 (read-out: Anti-rabies activity) was 10 to 30 µM.
With `O=C(NCc1ccccc1)[C@@]12C[C@@H]3CN(Cc4cccc5ccccc45)[C@@H]([C@@H]3CN1)[C@H]2Cc1ccccc1` (relative stereo) [IF-42], the IC50 (read-out: Anti-rabies activity) lay in the range of 10 to 30 µM.
Consider `CCC1N[C@@]2(C(=O)NCc3ccccc3)C[C@@H]3CN(CC(C)C)[C@@H]([C@H]13)[C@H]2Cc1ccccc1` (relative stereo) [IF-69], for which the IC50 is 10 to 30 µM (read-out: Anti-rabies activity) and 16.5 µM (read-out: IC50).
Regarding `CC(C)C[C@@H]1[C@@H]2[C@@H]3CN[C@@]1(C(=O)NCc1cccc4ccccc14)C[C@@H]3CN2CC(N)=O` (relative stereo) [IF-81], for the setting “read-out: Anti-rabies activity”, the IC50 fell in the range of 10 to 30 µM.
Same read-out and setting: as for `NC(=O)CN1C[C@H]2C[C@]3(C(=O)NCc4cccc5ccccc45)NC[C@H]2[C@H]1[C@H]3Cc1ccccc1` (relative stereo) [IF-82], the figure is 10 to 30 µM; as for `CC(C)CC[C@@H]1[C@@H]2[C@@H]3CN[C@@]1(C(=O)NCc1cccc4ccccc14)C[C@@H]3CN2CC(N)=O` (relative stereo) [IF-84], 10 to 30 µM.
As to `NC(=O)CN1C[C@H]2C[C@]3(C(=O)NCc4cccc5ccccc45)NC[C@H]2[C@H]1[C@H]3CCc1ccccc1` (relative stereo) [IF-85], the IC50 (read-out: Anti-rabies activity) lay within 10 to 30 µM.
Still for that read-out and setting: as for `NC(=O)CN1C[C@H]2C[C@]3(C(=O)NCCc4ccccc4)NC[C@H]2[C@H]1[C@H]3Cc1cccc2ccccc12` (relative stereo) [IF-90], the figure is 10 to 30 µM; as for `NC(=O)CN1C[C@H]2C[C@]3(C(=O)NCc4cccc5ccccc45)NC[C@H]2[C@H]1[C@H]3Cc1cccc2ccccc12` (relative stereo) [IF-91], under 5 µM.
On the same count and under the same terms, under `CC(C)CC[C@@H]1[C@@H]2[C@@H]3CN[C@@]1(C(=O)NCc1ccc(F)cc1)C[C@@H]3CN2CC(N)=O` (relative stereo) [IF-95] stands 10 to 30 µM; under `O=C(NCc1ccccc1)[C@@]12C[C@@H]3CN(Cc4cccc5ccccc45)[C@@H]([C@@H]3CN1)[C@H]2Cc1ccc(O)cc1` (relative stereo) [IF-505], under 5 µM; under `O=C(NCc1ccc(F)cc1)[C@@]12C[C@@H]3CN(CCO)[C@@H]([C@@H]3CN1)[C@H]2Cc1ccccc1` (relative stereo) [IF-508], 10 to 30 µM.
For the molecule `CCCCCCNC(=O)[C@@]12C[C@@H]3CN(CC4CCCCC4)[C@@H]([C@@H]3CN1)[C@H]2Cc1ccc(O)cc1` (relative stereo) [IF-514], the IC50 (read-out: Anti-rabies activity) is under 5 µM.
For `O=C(NCc1ccc(F)cc1)[C@@]12C[C@@H]3CN(CCO)[C@@H]([C@@H]3CN1)[C@H]2CCc1ccccc1` (relative stereo) [IF-516], for the setting “read-out: Anti-rabies activity”, the IC50 was under 5 µM.
As to `CC(C)CN1C[C@H]2C[C@]3(C(=O)NCc4ccc(F)cc4)NC[C@H]2[C@H]1[C@H]3CCc1ccccc1` (relative stereo) [IF-525], the IC50 (read-out: Anti-rabies activity) fell in the range of 10 to 30 µM.
Turning to `CC(C)C[C@@H]1[C@@H]2[C@@H]3CN[C@@]1(C(=O)NCc1cccc4ccccc14)C[C@@H]3CN2CCO` (relative stereo) [IF-542], where the note is “read-out: Anti-rabies activity”, the IC50 was under 5 µM.
The same measure, in the same setting: under `CC(C)CCN1C[C@H]2C[C@]3(C(=O)NCCc4ccccc4)NC[C@H]2[C@H]1[C@H]3Cc1ccc(O)cc1` (relative stereo) [IF-545] stands 10 to 30 µM; under `CCCCCCNC(=O)[C@@]12C[C@@H]3CN(CCC(C)C)[C@@H]([C@@H]3CN1)[C@H]2CC(C)C` (relative stereo) [IF-546], 10 to 30 µM.
